The source of these data is patent publication US12577245B2, “Sulfonyl benzamide derivatives as Bcl-2 inhibitors” (ASCENTAGE PHARMA (SUZHOU) CO., LTD., priority 2021, dated 2026).

For assay [1], the system named is RS4; 11Bcl-2-G101V cells. Kind of assay: CellTiter-Glo (CTG) cell viability assay in RS4;11-Bcl-2-G101V cells. The class given is cell-based. To be noted: 72 h, 10% FBS, 3 days. The gist of the method:
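Luminescent ATP read-out (CellTiter-Glo) after 3-day compound treatment at 37 °C gave viability relative to vehicle, from which IC50 was fitted. Mutant Bcl-2 RS4;11 cells were seeded at 10000 per well and rested 4 h before dosing.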
(In general: In ATP-based viability assays light output follows the ATP content of the culture.)

For assay [2], the target named is Bcl-2 WT (Homo sapiens, UniProt P10415). Kind of assay: Bcl-2 WT inhibition, fluorescence polarization (Flu-BIM tracer) binding assay. To be noted: FP; 20 nM Bcl2, 5 nM Flu-BIM, 1 h incubation; read-out: Bcl-2 w.t. (FP).
In assay [3] the test system is MV-4-11 cells. Kind of assay: CCK-8 cell viability assay in MV-4-11 cells. It counts as cell-based. The settings on record: Homo sapiens, MV4-11, 72 h, 10% FBS, 3 days. The gist of the method: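 IC50 values come from vehicle-normalized CCK-8 absorbance at 450 nm, read 1–4 h after reagent addition. Before that, MV-4-11 cells seeded at 20000 per well were cultured 3 days at 37 °C with a compound dilution series.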
For orientation: Tetrazolium dyes change colour on reduction, which living cells bring about.

Chain of Bcl-2 WT (P10415 whole entry): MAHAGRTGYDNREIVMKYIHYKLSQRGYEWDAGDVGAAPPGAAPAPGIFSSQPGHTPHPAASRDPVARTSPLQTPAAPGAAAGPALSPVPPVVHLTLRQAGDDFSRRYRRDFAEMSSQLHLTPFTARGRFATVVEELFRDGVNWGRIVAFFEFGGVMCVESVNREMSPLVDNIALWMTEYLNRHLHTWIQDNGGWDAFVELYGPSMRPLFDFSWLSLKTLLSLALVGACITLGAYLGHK

As for `CC(CO)c1ccc(-c2csc(C3=C(CN4CCN(c5ccc(C(=O)NS(=O)(=O)c6ccc(NC[C@H]7CC[C@](C)(O)CC7)c([N+](=O)[O-])c6)c(Oc6cnc7[nH]ccc7c6)c5)CC4)CCC(C)(C)C3)c2)c(F)c1` (stereo partly drawn) [Example 72, 2-((1H-pyrrolo[2,3-b]pyridin-5-yl)oxy)-4-(4-((2-(4-(2-fluoro-4-(1-hydroxypropan-2-yl)phenyl)thiophen-2-yl)-4,4-dimethylcyclohex-1-en-1-yl)methyl)piperazin-1-yl)-N-((4-((((1r,4r)-4-hydroxy-4-methylcyclohexyl)methyl)amino)-3-nitrophenyl)sulfonyl)benzamide], the values for the IC50 in assay [1], in assay [2] and in assay [3] were 440 nM, 20.5 nM and 12 nM, respectively.
For `CC1(C)CCC(CN2CCN(c3ccc(C(=O)NS(=O)(=O)c4ccc(NC[C@H]5CC[C@](C)(O)CC5)c([N+](=O)[O-])c4)c(Oc4cnc5[nH]ccc5c4)c3)CC2)=C(c2cc(-c3cc(C(C)(C)O)ccc3F)cs2)C1` [Example 75, 2-((1H-pyrrolo[2,3-b]pyridin-5-yl)oxy)-4-(4-((2-(4-(2-fluoro-5-(2-hydroxypropan-2-yl)phenyl)thiophen-2-yl)-4,4-dimethylcyclohex-1-en-1-yl)methyl)piperazin-1-yl)-N-((4-((((1r,4r)-4-hydroxy-4-methylcyclohexyl)methyl)amino)-3-nitrophenyl)sulfonyl)benzamide] the same measures were 1580 nM, 19.2 nM and 118 nM.
`CC1(C)CCC(CN2CCN(c3ccc(C(=O)NS(=O)(=O)c4ccc(NC[C@H]5CC[C@@](C)(O)CC5)c([N+](=O)[O-])c4)c(Oc4cnc5[nH]ccc5c4)c3)CC2)=C(c2cc(CN3CCOCC3)cs2)C1` [Example 23, 2-((1H-pyrrolo[2,3-b]pyridin-5-yl)oxy)-4-(4-((4,4-dimethyl-2-(4-(morpholinomethyl)thiophen-2-yl)cyclohex-1-en-1-yl)methyl)piperazin-1-yl)-N-((4-((((1s,4s)-4-hydroxy-4-methylcyclohexyl)methyl)amino)-3-nitrophenyl)sulfonyl)benzamide]: the IC50 in assay [1] turned out to be 930 nM; in assay [2], 15.7 nM; in assay [3] it was 180 nM.
For `CC1(C)CCC(CN2CCN(c3ccc(C(=O)NS(=O)(=O)c4ccc(NC[C@H]5CC[C@](C)(O)CC5)c([N+](=O)[O-])c4)c(Oc4cnc5[nH]ccc5c4)c3)CC2)=C(c2cc(-c3ccc(C(F)F)cc3)cs2)C1` [Example 49, 2-((1H-pyrrolo[2,3-b]pyridin-5-yl)oxy)-4-(4-((2-(4-(4-(difluoromethyl)phenyl)thiophen-2-yl)-4,4-dimethylcyclohex-1-en-1-yl)methyl)piperazin-1-yl)-N-((4-((((1r,4r)-4-hydroxy-4-methylcyclohexyl)methyl)amino)-3-nitrophenyl)sulfonyl)benzamide] the same measures were 420 nM, 38.4 nM and 9 nM.
For the compound `CC1(C)CCC(CN2CCN(c3ccc(C(=O)NS(=O)(=O)c4ccc(NC[C@H]5CC[C@](C)(O)CC5)c([N+](=O)[O-])c4)c(Oc4cnc5[nH]ccc5c4)c3)CC2)=C(c2cc(CN3CCOCC3)cs2)C1` [Example 24, 2-((1H-pyrrolo[2,3-b]pyridin-5-yl)oxy)-4-(4-((4,4-dimethyl-2-(4-(morpholinomethyl)thiophen-2-yl)cyclohex-1-en-1-yl)methyl)piperazin-1-yl)-N-((4-((((1r,4r)-4-hydroxy-4-methylcyclohexyl)methyl)amino)-3-nitrophenyl)sulfonyl)benzamide], the IC50 was determined as 340 nM in assay [1], 15.9 nM in assay [2] and 40 nM in assay [3].
As for `CC1(C)CCC(CN2CCN(c3ccc(C(=O)NS(=O)(=O)c4ccc(NCC5CCOCC5)c([N+](=O)[O-])c4)c(Oc4cnc5[nH]ccc5c4)c3)CC2)=C(c2ccsc2CN2CCOCC2)C1` [Example 25, 2-((1H-pyrrolo[2,3-b]pyridin-5-yl)oxy)-4-(4-((4,4-dimethyl-2-(2-(morpholinomethyl)thiophen-3-yl)cyclohex-1-en-1-yl)methyl)piperazin-1-yl)-N-((3-nitro-4-(((tetrahydro-2H-pyran-4-yl)methyl)amino)phenyl)sulfonyl)benzamide], the IC50 in assay [1] is 1810 nM; in assay [2], 25.4 nM; in assay [3] it was 225 nM.
With `CC1(C)CCC(CN2CCN(c3ccc(C(=O)NS(=O)(=O)c4ccc(NC[C@H]5COCCO5)c([N+](=O)[O-])c4)c(Oc4cnc5[nH]ccc5c4)c3)CC2)=C(c2cc3c(s2)CCN(c2ccc(F)cc2)C3)C1` [Example 15, (S)—N-((4-(((1,4-dioxan-2-yl)methyl)amino)-3-nitrophenyl)sulfonyl)-2-((1H-pyrrolo[2,3-b]pyridin-5-yl)oxy)-4-(4-((2-(5-(4-fluorophenyl)-4,5,6,7-tetrahydrothieno[3,2-c]pyridin-2-yl)-4,4-dimethylcyclohex-1-en-1-yl)methyl)piperazin-1-yl)benzamide], the IC50 amounted to 8810 nM in assay [1], 27.6 nM in assay [2] and 466 nM in assay [3].
As for `CCC(O)(CC)c1cc(F)c(-c2csc(C3=C(CN4CCN(c5ccc(C(=O)NS(=O)(=O)c6ccc(NC[C@H]7CC[C@](C)(O)CC7)c([N+](=O)[O-])c6)c(Oc6cnc7[nH]ccc7c6)c5)CC4)CCC(C)(C)C3)c2)c(F)c1` [Example 67, 2-((1H-pyrrolo[2,3-b]pyridin-5-yl)oxy)-4-(4-((2-(4-(2,6-difluoro-4-(3-hydroxypentan-3-yl)phenyl)thiophen-2-yl)-4,4-dimethylcyclohex-1-en-1-yl)methyl)piperazin-1-yl)-N-((4-((((1r,4r)-4-hydroxy-4-methylcyclohexyl)methyl)amino)-3-nitrophenyl)sulfonyl)benzamide], the values for the IC50 in assay [1], in assay [2] and in assay [3] were 840 nM, 27.2 nM and 251 nM, respectively.
Regarding `CC(C)c1sccc1C1=C(CN2CCN(c3ccc(C(=O)NS(=O)(=O)c4ccc(NCC5CCOCC5)c([N+](=O)[O-])c4)c(Oc4cnc5[nH]ccc5c4)c3)CC2)CCC(C)(C)C1` [Example 11, 2-((1H-pyrrolo[2,3-b]pyridin-5-yl)oxy)-4-(4-((2-(2-isopropylthiophen-3-yl)-4,4-dimethylcyclohex-1-en-1-yl)-methyl)piperazin-1-yl)-N-((3-nitro-4-(((tetrahydro-2H-pyran-4-yl)methyl)amino)-phenyl)sulfonyl)benzamide], the IC50 in assay [1] was found to be 2360 nM; in assay [2], 20.9 nM; in assay [3], 54 nM.
Take `CC1(C)CCC(CN2CCN(c3ccc(C(=O)NS(=O)(=O)c4ccc(NCC5CCOCC5)c([N+](=O)[O-])c4)c(Oc4cnc5[nH]ccc5c4)c3)CC2)=C(c2cc(-c3ccccc3)cs2)C1` [Example 34, 2-((1H-pyrrolo[2,3-b]pyridin-5-yl)oxy)-4-(4-((4,4-dimethyl-2-(4-phenylthiophen-2-yl)cyclohex-1-en-1-yl)methyl)piperazin-1-yl)-N-((3-nitro-4-(((tetrahydro-2H-pyran-4-yl)methyl)amino)phenyl)sulfonyl)benzamide]: the IC50 in assay [1] was 1460 nM; in assay [2], 41.1 nM; in assay [3] it was 18 nM.
`CC1(C)CCC(CN2CCN(c3ccc(C(=O)NS(=O)(=O)c4ccc(NC[C@H]5CC[C@](C)(O)CC5)c([N+](=O)[O-])c4)c(Oc4cnc5[nH]ccc5c4)c3)CC2)=C(c2cc(-c3ccc(C(C)(C)O)cc3)cs2)C1` [Example 59, 2-((1H-pyrrolo[2,3-b]pyridin-5-yl)oxy)-N-((4-((((1r,4r)-4-hydroxy-4-methylcyclohexyl)methyl)amino)-3-nitrophenyl)sulfonyl)-4-(4-((2-(4-(4-(2-hydroxypropan-2-yl)phenyl)thiophen-2-yl)-4,4-dimethylcyclohex-1-en-1-yl)methyl)piperazin-1-yl)benzamide]: the IC50 was 290 nM in assay [1], 29.3 nM in assay [2] and 2 nM in assay [3].
For `CC1(C)CCC(CN2CCN(c3ccc(C(=O)NS(=O)(=O)c4ccc(NC[C@H]5COCCO5)c([N+](=O)[O-])c4)c(Oc4cnc5[nH]ccc5c4)c3)CC2)=C(c2cc(-c3ccc(Cl)cc3)cs2)C1` [Example 38, (S)—N-((4-(((1,4-dioxan-2-yl)methyl)amino)-3-nitrophenyl)sulfonyl)-2-((1H-pyrrolo[2,3-b]pyridin-5-yl)oxy)-4-(4-((2-(4-(4-chlorophenyl)thiophen-2-yl)-4,4-dimethylcyclohex-1-en-1-yl)methyl)piperazin-1-yl)benzamide] the same measures were 1640 nM, 20.2 nM and 28 nM.
For `CC1(C)CCC(CN2CCN(c3ccc(C(=O)NS(=O)(=O)c4ccc(NC[C@H]5CC[C@](C)(O)CC5)c([N+](=O)[O-])c4)c(Oc4cnc5[nH]ccc5c4)c3)CC2)=C(c2cc(-c3c(F)ccc(F)c3F)cs2)C1` [Example 54, 2-((1H-pyrrolo[2,3-b]pyridin-5-yl)oxy)-4-(4-((4,4-dimethyl-2-(4-(2,3,6-trifluorophenyl)thiophen-2-yl)cyclohex-1-en-1-yl)methyl)piperazin-1-yl)-N-((4-((((1r,4r)-4-hydroxy-4-methylcyclohexyl)methyl)amino)-3-nitrophenyl)sulfonyl)benzamide] the same measures were 270 nM, 22.8 nM and 7 nM.
